# According to patent US20210346461A1, “UTILIZATION OF ENDOGENOUS OUBAIN-REGULATING COMPOUNDS AND COMPOSITIONS THEREOF IN TREATMENT OF VASCULAR DISEASE” (priority 2020, published 2021):
# “Also recorded” adds a separate entry of the source. Like-named read-outs stand apart in the source and are kept apart here.
# Columns and labels:
# [1] = test system: pregnant uterine arteries; assay: PGI2 release/response in pregnant uterine arteries; type: cell-based
# Description: FIG. 1A is a graph of laboratory data indicating PGI2 response in pregnant uterine arteries at various levels of Ouabain, wherein GABA is provided and Taurine is not—both without and with the provision of AII.
# FIG. 1B is a graph of laboratory data indicating PGI2 response in pregnant uterine arteries at various levels of Ouabain, wherein both GABA and Taurine are provided—without and with the provision of AII.
# FIG. 3A is a graph of laboratory data indicating PGI2 response in pregnant uterine arteries at various levels of GABA, wherein neither Taurine nor Ouabain is provided—without and with the provision of AII.
# FIGS. 4A and 4B are graphs of laboratory data illustrating PGI2 response to taurine levels, GABA levels, and the provision of AII in pregnant uterine vessels with lower and higher Ouabain conditions, respectively.
# FIGS. 5B is a graph of laboratory data illustrating PGI2 response in pregnant uterine arteries to the provision of various combinations of GABA, AII, and bicuculine.
# (§1) FIG. 6 is a graph illustrating changes in PGI2 response versus basal levels, in both pregnant uterine vessels and pregnant systemic vessels, when the endothelium is removed.
# [2] = test system: intact nonpregnant systemic vessels; assay: PGI2 response in intact nonpregnant systemic vessels (GABA dose response curves); type: cell-based, sheep; conditions: for PGI2 levels on addition of Nanomolar Ouabain: most concentrations of GABA
# Description: FIG. 2A is a graph of laboratory data indicating PGI2 response in intact nonpregnant systemic vessels at various levels of GABA, wherein neither Taurine nor Ouabain is provided without and with the provision of AII.
# FIG. 2B is a graph of laboratory data indicating PGI2 response in intact nonpregnant systemic vessels at various levels of GABA, wherein neither Taurine nor AII is provided—without and with the provision of Ouabain.
# FIG. 2C is a graph of laboratory data indicating PGI2 response in intact nonpregnant systemic vessels at various levels of GABA, wherein AII is provided and Taurine is not—without and with the provision of Ouabain.
# In FIGS. 2A-2C, GABA dose response curves of systemic vessels in 18 day postpartum sheep are provided. These vessels are believed to be representative of non-pregnant normotensive systemic vessels. […] Accordingly, it appears that at least one of Taurine or EO (or the like) may be needed to up-regulate the GABA-a receptor to augment PGI2 levels in the presence of nanomolar ouabain, or may at least be substantially helpful to increase PGI2 levels.
# Cyclooxygenase (COX) = conditions: pharmacological blockade of COX; cited from earlier work
# [3] = test system: pregnant systemic arteries; assay: PGI2 release/response in pregnant systemic arteries; type: cell-based
# Description: FIG. 3B is a graph of laboratory data indicating PGI2 response in pregnant systemic arteries at various levels of GABA, wherein neither Taurine nor Ouabain is provided—without and with the provision of AII.
# FIGS. 5A is a graph of laboratory data illustrating PGI2 response in pregnant systemic arteries to the provision of various combinations of GABA, AII, and bicuculine.
# as §1
# [4] = cited from earlier work
molecule,measurement,setting,value
C[C@@H]1O[C@@H](O[C@H]2C[C@@H](O)[C@]3(CO)[C@H]4[C@H](O)C[C@]5(C)[C@@H](C6=CC(=O)OC6)CC[C@]5(O)[C@@H]4CC[C@]3(O)C2)[C@H](O)[C@H](O)[C@H]1O [Ouabain],PGI2 release with increase in Ouabain,"[1]; FIGS. 4A/4B, Ouabain from −10M to −9M, low taurine, GABA approx. −7M",higher PGI2 release
same,PGI2 levels on addition of Nanomolar Ouabain,"[2]; FIG. 2B, without AII, no Taurine",significant increase in PGI2 levels
same,PGI2 levels on addition of Nanomolar Ouabain,"[2]; FIG. 2C, with AII, no Taurine",significant increase in PGI2 levels
CC(=O)Oc1ccccc1C(=O)O [aspirin],resting blood pressure,Cyclooxygenase (COX),does not substantially affect resting blood pressure
CN1CCc2cc3c(cc2[C@H]1[C@@H]1OC(=O)c2c1ccc1c2OCO1)OCO3 [bicuculine],PGI2 release on blocking GABA-a receptors,"[1]; FIG. 5B, also when additional GABA was added (col. 5)",substantially reduced PGI2 release
same,PGI2 release on blocking GABA-a receptors,[3]; FIG. 5A,reduced PGI2 release
COc1ccc2c(c1)c(CC(=O)O)c(C)n2C(=O)c1ccc(Cl)cc1 [indomethacin],resting blood pressure,Cyclooxygenase (COX),does not substantially affect resting blood pressure
NCCCC(=O)O [GABA],PGI2 release with GABA and AII,"[1]; FIG. 4A, low levels of taurine and low Ouabain",PGI2 release increased
same,PGI2 release on addition of GABA,"[1]; FIG. 5B col. 2, GABA alone, no AII",insignificant effect on PGI2 release
same,PGI2 release on addition of GABA,[1]; together with AII,increase PGI2; also recorded: increased PGI2 release
same,PGI2 release on exposure to GABA,[3]; absence of AII,increased PGI2 release; also recorded: responded to make PGI2
same,PGI2 response to GABA,"[2]; FIG. 2A/2B, 18 day postpartum sheep, no Ouabain, no Taurine",no PGI2 response; also recorded: did not release significant PGI2
same,blood pressure,[4]; eHTN humans,lower blood pressure
same,blood pressure,[4]; normotensive patients,no effect to reduce blood pressure
Angiotensin II [AII],effect of presence or absence of AII on PGI2 release,"[1]; FIG. 1A, GABA provided, without taurine, various levels of Ouabain",negligible effect on PGI2 release
same,PGI2 release difference responsive to presence or absence of AII,"[1]; FIG. 3A, GABA concentrations of −7M, −6M, −5M",no significant PGI2 release difference
same,PGI2 release with AII vs without AII,"[1]; FIG. 3A, most levels of GABA, no Taurine, no Ouabain",more PGI2 is released
same,PGI2 release on further addition of AII,"[1]; FIG. 5B col. 4, bicuculine and GABA present",even further decreased PGI2
same,PGI2 release in the presence of AII,"[1]; FIG. 6, endothelium removed",reduced
same,relationship between PGI2 release and AII presence,"[3]; FIG. 3B, various GABA levels, no Taurine, no Ouabain, compared with uterine circuit",substantially inverted
same,PGI2 release in the presence of AII,"[3]; FIG. 6, endothelium removed",increased
same,PGI2 formation by presence or absence of Angiotensin II,"[2]; FIG. 2A, exposed to GABA, without Taurine or EO",no significant PGI2 formation
same,PGI2 release on addition of AII,"[2]; FIG. 2B vs 2C, in the presence of Ouabain, especially at higher GABA",substantially more PGI2 release
"NCCS(=O)(=O)O [Taurine, 2-amino-ethane sulfonic acid]",overall PGI2 release with vs without Taurine,"[1]; FIG. 1A vs 1B, regardless of AII presence",overall PGI2 release appears higher without Taurine
NCC(CP(=O)(O)O)c1ccc(Cl)cc1 (stereo not shown) [phaclofen],PGI2 release on GABA-b receptor blockade,"[1]; experiments similar to FIGS. 5A/5B in pregnant vessels, data not shown",did not affect PGI2 release
